The source of these data is ChEMBL document CHEMBL1201862, “PubChem BioAssay data set” (2004).

The structures appear in SMILES notation.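 Test compounds were applied to cells in 96-well plates for 48 hours at 5 doses. GI50 marks 50% less growth.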 Active and inactive are the calls of the source. Cut-off read from the data, not from the text of the source: active = GI50 up to about 1.1 µM and inactive = higher.

Some test systems named below: MDA-MB-435; IGROV-1; DU-145; UO-31; Malme-3M; RXF 393; U-251; RPMI-8226; ACHN; SK-MEL-28; OVCAR-5; M14; SNB-19; EKVX; NCI-H226; MDA-MB-231; NCI/ADR-RES; SK-OV-3; SF-268.
Common to all, as to assay: NCI-60 cell line screen, 48 h

Consider `Cc1cc2occ(S(=O)(=O)NC(=O)Nc3ccc(Cl)cc3)c(=O)c2c(=O)o1`, for which the GI50 with MDA-MB-435, with IGROV-1, with DU-145, in the assay on UO-31, with Malme-3M and in the assay on RXF 393 was > 100 µM (inactive) each time. In addition, the GI50 was > 100 µM (inactive) in the assay on U-251; > 100 µM (inactive) with RPMI-8226; 40.2 µM (inactive) in the assay on ACHN; > 100 µM (inactive) in the assay on SK-MEL-28; > 100 µM (inactive) in the assay with OVCAR-5; > 100 µM (inactive) in the assay on M14. Further, the GI50 in the assay on SNB-19, in the assay on EKVX, with NCI-H226, with MDA-MB-231, in the assay with NCI/ADR-RES and in the assay with SK-OV-3 was > 100 µM (inactive) each time. Further, the GI50 in the assay with SF-268 is > 100 µM (inactive).
For the compound `CC(=O)OC1C(C)OC(OC2C[C@](O)(C(C)=O)Cc3c(O)c4c(c(O)c32)C(=O)c2ccccc2C4=O)C(F)C1OC(C)=O` (stereo not given in full), the GI50 is 2.25 µM (inactive) in the assay with MDA-MB-435; 0.243 µM (active) in the assay with IGROV-1; 0.23 µM (active) in the assay with DU-145; 0.115 µM (active) in the assay on UO-31; 1.14 µM (inactive) in the assay on Malme-3M; 2.74 µM (inactive) in the assay on RXF 393. The GI50 in the assay with U-251 was 0.238 µM (active); in the assay on RPMI-8226, 0.175 µM (active); in the assay with ACHN, 0.114 µM (active); in the assay with SK-MEL-28, 3.4 µM (inactive); in the assay with OVCAR-5, 0.916 µM (active); in the assay on M14, 0.735 µM (active). Moreover, the GI50 in the assay on SNB-19 is 0.245 µM (active); in the assay with EKVX, 3.68 µM (inactive); with NCI-H226 it was 0.335 µM (active); in the assay on MDA-MB-231, 1.06 µM (active); in the assay on NCI/ADR-RES, 1.45 µM (inactive); with SK-OV-3, 0.617 µM (active). Further, the GI50 in the assay on SF-268 is 0.541 µM (active).
Consider `C=C(Br)C(Br)(CCl)CCC(Cl)C(C)C.C=C(Cl)C(Br)(CCl)CCC(Cl)C(C)C` (stereo not given), for which the GI50 with MDA-MB-435 is 1.93 µM (inactive); in the assay on IGROV-1, 1.88 µM (inactive); with DU-145 it was 1.65 µM (inactive); with UO-31 it was 1.63 µM (inactive); with Malme-3M, 2.49 µM (inactive); in the assay on RXF 393, 2.18 µM (inactive). The GI50 in the assay on U-251 is 1.75 µM (inactive); with RPMI-8226 it was 0.208 µM (active); in the assay on ACHN it was 1.74 µM (inactive); with SK-MEL-28 it was 1.77 µM (inactive); with OVCAR-5, 2.84 µM (inactive); in the assay with M14, 1.89 µM (inactive). In addition, the GI50 is 3 µM (inactive) with SNB-19; 15.8 µM (inactive) in the assay with EKVX; 3.69 µM (inactive) with NCI-H226; 1.24 µM (inactive) in the assay on MDA-MB-231; 1.94 µM (inactive) in the assay with NCI/ADR-RES; 2.3 µM (inactive) in the assay with SK-OV-3. For the same compound, the GI50 in the assay on SF-268 is 1.75 µM (inactive).
Take `O=C(NNc1ccnc2cc(Cl)ccc12)/C(=C\c1ccccc1Cl)NC(=O)c1ccccc1`: the GI50 in the assay on MDA-MB-435 was 38.6 µM (inactive); in the assay with IGROV-1 it was 12.5 µM (inactive); in the assay with DU-145, 55.7 µM (inactive); in the assay on UO-31, 38.9 µM (inactive); with Malme-3M, 52.6 µM (inactive); in the assay on RXF 393, 27.2 µM (inactive). Moreover, the GI50 with U-251 was 17.3 µM (inactive); in the assay with RPMI-8226 it was 29.2 µM (inactive); in the assay with ACHN, 25.4 µM (inactive); in the assay on SK-MEL-28 it was > 100 µM (inactive); with OVCAR-5, 39.7 µM (inactive); with M14, 31.3 µM (inactive). Besides, the GI50 was 46.2 µM (inactive) with SNB-19; 31.8 µM (inactive) with EKVX; 23.2 µM (inactive) in the assay on NCI-H226; 74 µM (inactive) in the assay on MDA-MB-231; 24.9 µM (inactive) in the assay with NCI/ADR-RES; > 100 µM (inactive) with SK-OV-3. In addition, the GI50 in the assay with SF-268 was 27.4 µM (inactive).
As for `O=c1[nH]nc(-c2ccccc2)n1/N=C/c1ccc([N+](=O)[O-])o1`, the GI50 in the assay on MDA-MB-435 was 5.2 µM (inactive); with IGROV-1 it was 2.57 µM (inactive); in the assay on DU-145 it was 3.45 µM (inactive); in the assay on UO-31, 4.32 µM (inactive); with Malme-3M, 4.26 µM (inactive); with RXF 393 it was 0.897 µM (active). The GI50 in the assay on U-251 was 6.5 µM (inactive); in the assay on RPMI-8226, 2.04 µM (inactive); in the assay with ACHN, 2.42 µM (inactive); in the assay with SK-MEL-28, 4.92 µM (inactive); in the assay with OVCAR-5 it was 10.4 µM (inactive); in the assay on M14 it was 4.14 µM (inactive). In addition, the GI50 is 12.6 µM (inactive) in the assay with SNB-19; 8.63 µM (inactive) in the assay on EKVX; 9.44 µM (inactive) with NCI-H226; 6.71 µM (inactive) with MDA-MB-231; 5.85 µM (inactive) in the assay on NCI/ADR-RES; 9.29 µM (inactive) in the assay with SK-OV-3. The GI50 in the assay with SF-268 is 5.57 µM (inactive).
`Cn1c2ccccc2n2c3ncccc3/c(=N/CCCC(=O)O)c(C#N)c12`: the GI50 with MDA-MB-435, with IGROV-1, with DU-145, with UO-31, with Malme-3M and in the assay with RXF 393 was > 100 µM (inactive) each time. In addition, the GI50 in the assay on U-251, in the assay on RPMI-8226, with ACHN, with SK-MEL-28, in the assay with OVCAR-5 and with M14 was > 100 µM (inactive) each time. The GI50 in the assay on SNB-19, with EKVX, in the assay on NCI-H226, with MDA-MB-231, with NCI/ADR-RES and with SK-OV-3 was > 100 µM (inactive) in each case. In addition, in the assay on SF-268, the GI50 was > 100 µM (inactive).
On to `COc1cc(CC(C)C(C)Cc2ccc(O)c(OC)c2)ccc1O` (stereo not given) [DIHYDROGUAIARETIC ACID], for which the GI50 was 13 µM (inactive) with MDA-MB-435; 12.7 µM (inactive) with IGROV-1; 22.3 µM (inactive) in the assay with DU-145; 12.7 µM (inactive) with UO-31; 13.1 µM (inactive) with Malme-3M; 13.1 µM (inactive) in the assay with RXF 393. Besides, the GI50 in the assay on U-251 is 14.8 µM (inactive); in the assay with RPMI-8226, 7.93 µM (inactive); with ACHN it was 13.1 µM (inactive); in the assay on SK-MEL-28 it was 21 µM (inactive); in the assay with OVCAR-5 it was > 50 µM (inactive); in the assay with M14 it was 14.1 µM (inactive). Further, the GI50 with SNB-19 is 21.8 µM (inactive); in the assay on EKVX, 15.5 µM (inactive); in the assay with NCI-H226 it was 14.2 µM (inactive); with MDA-MB-231, 10.1 µM (inactive); in the assay with NCI/ADR-RES, 16.2 µM (inactive); in the assay on SK-OV-3, 20.9 µM (inactive). For the same compound, the GI50 with SF-268 is 15.7 µM (inactive).
As for `O=C(CC(=O)N1N=C(c2ccccc2)C(/N=N/c2ccc(S(=O)(=O)CCOS(=O)(=O)O)cc2)C1=O)Nc1ccc(Cl)cc1` (stereo not given), the GI50 is > 100 µM (inactive) in the assay with MDA-MB-435; 8.75 µM (inactive) in the assay on IGROV-1; > 100 µM (inactive) with DU-145; 40.3 µM (inactive) in the assay on UO-31; > 100 µM (inactive) in the assay with Malme-3M; > 100 µM (inactive) with RXF 393. Further, the GI50 in the assay with U-251 is > 100 µM (inactive); in the assay with RPMI-8226, > 100 µM (inactive); in the assay on ACHN it was 9.82 µM (inactive); in the assay on SK-MEL-28, > 100 µM (inactive); in the assay with OVCAR-5, > 100 µM (inactive); in the assay with M14, 28.1 µM (inactive). The GI50 in the assay on SNB-19 is > 100 µM (inactive); in the assay with EKVX, > 100 µM (inactive); in the assay on NCI-H226, > 100 µM (inactive); in the assay with MDA-MB-231, 91.6 µM (inactive); in the assay on NCI/ADR-RES it was > 100 µM (inactive); with SK-OV-3 it was > 100 µM (inactive). For the same compound, the GI50 with SF-268 was > 100 µM (inactive).
As to `CCCC/N=C(/c1ccccc1)N1CCOCC1`, the GI50 with MDA-MB-435 was > 100 µM (inactive); with IGROV-1, > 100 µM (inactive); in the assay with DU-145, > 100 µM (inactive); in the assay on UO-31, 97.7 µM (inactive); in the assay on Malme-3M, 57.9 µM (inactive); in the assay on RXF 393, > 100 µM (inactive). Further, the GI50 with U-251, in the assay with RPMI-8226, in the assay with ACHN, in the assay with SK-MEL-28, in the assay on OVCAR-5 and in the assay with M14 was > 100 µM (inactive) in each case. For the same compound, the GI50 with SNB-19, with EKVX, with NCI-H226, in the assay with MDA-MB-231, with NCI/ADR-RES and with SK-OV-3 was > 100 µM (inactive) throughout. In the assay with SF-268, the GI50 was > 100 µM (inactive).
Consider `COc1cc2cc(C(=O)N3CC(CCl)c4ccc(N(C)C)cc43)[nH]c2c(OC)c1OC` (stereo not given), for which the GI50 in the assay on MDA-MB-435 was 0.168 µM (active); in the assay with IGROV-1 it was 0.0601 µM (active); in the assay on DU-145, 0.0333 µM (active); with UO-31 it was 0.0381 µM (active); with Malme-3M, 0.109 µM (active); in the assay on RXF 393, 0.0267 µM (active). Further, the GI50 in the assay on U-251 was 0.0897 µM (active); in the assay on RPMI-8226, 0.043 µM (active); in the assay on ACHN, 0.0199 µM (active); in the assay with SK-MEL-28, 0.0556 µM (active); in the assay on OVCAR-5, 0.0853 µM (active); in the assay on M14, 0.0923 µM (active). Moreover, the GI50 in the assay with SNB-19 was 0.304 µM (active); with EKVX, 0.173 µM (active); with NCI-H226 it was 0.152 µM (active); with MDA-MB-231, 0.234 µM (active); in the assay on NCI/ADR-RES it was 0.0449 µM (active); with SK-OV-3 it was 0.261 µM (active). In the assay on SF-268, the GI50 is 0.0678 µM (active).
